The source made the active and inactive calls. The calls are words filed in the database; no cut-off is given here.
What was measured:
Mus musculus [1] = experiment: Protection against LPS-induced acute lung injury mouse model assessed as inhibition of alveolar wall thickening at 1 to 2 mg/kg, po preincubated for 4 hrs followed by LPS stimulation and measured after 6 hrs by H and E staining based analysis; format: functional, organism-based; details: dose 1-2 mg/kg, time 10.0 hrs
[2] = Toxicity in BALB/c mouse assessed as effect on animal health at 2 to 4 mg/kg, IG; format: organism-based; details: in vivo, po, dose 2-4 mg/kg
RAW264.7 [3] = experiment: Cytotoxicity against mouse RAW264.7 cells assessed as reduction in cell viability at <20 uM measured after 24 hrs by MTT assay; format: functional, cell-based
[4] = Toxicity in Zebra fish AB embryo assessed as viability of zebrafish larvae at <50 uM measured upto 120 hrs post fertilization by stereomicroscopic analysis; parameters: species or system Danio rerio
[5] = Cytotoxicity against African green monkey Vero cells assessed as reduction in cell viability at <20 uM measured after 24 hrs by MTT assay; format: toxicity, cell-based; details: chlorocebus sabaeus
RAW264.7 [6] = experiment: Antiinflammatory activity in mouse RAW264.7 cells assessed as reduction in iNOS mRNA expression at 2.5 to 10 uM by RT-PCR analysis; format: functional, cell-based; details: dose 2.5-10 µM
Pseudomonas aeruginosa [7] = experiment: Anti-biofilm activity against Pseudomonas aeruginosa PAO1 assessed as reduction in biofilm formation incubated for 24 hrs by crystal violet staning based analysis; format: functional, organism-based
[8] = Toxicity in BALB/c mouse assessed as adverse effect at 2 to 4 mg/kg, IG; format: organism-based; details: in vivo, po, dose 2-4 mg/kg
Mus musculus [9] = experiment: Anti-inflammatory activity against LPS-induced acute lung injury mouse model assessed as downregulation of IL-6 level administered as po dose preincubated for 4 hrs followed by LPS stimulation and measured after 6 hrs by ELISA method; format: functional, organism-based; details: dose 1-2 mg/kg, time 10.0 hrs
RAW264.7 [10] = experiment: Inhibition of ERK signaling in mouse RAW264.7 cells assessed as reduction in LPS induced ERK phosphorylation by Western blot analysis; format: cell-based
[11] = Toxicity in BALB/c mouse assessed as effect on kidney at 2 to 4 mg/kg, PO measured after 7 days by H and E staining based analysis; format: organism-based; details: in vivo, 168 h, dose 2-4 mg/kg, time 7 day
Mus musculus [12] = experiment: Protection against LPS-induced acute lung injury mouse model assessed as inhibition of neutrophil infiltration at 1 to 2 mg/kg, po preincubated for 4 hrs followed by LPS stimulation and measured after 6 hrs by H and E staining based analysis; format: functional, organism-based; details: dose 1-2 mg/kg, time 10.0 hrs
Mus musculus [13] = experiment: Anti-inflammatory activity against LPS-induced acute lung injury mouse model assessed as reduction in IL-1 beta mRNA expression at 1 to 2 mg/kg, po preincubated for 4 hrs followed by LPS stimulation and measured after 6 hrs; format: functional, organism-based; details: dose 1-2 mg/kg, time 10.0 hrs
RAW264.7 [14] = experiment: Antiinflammatory activity in mouse RAW264.7 cells assessed as reduction in IL-1 beta mRNA expression at 2.5 to 10 uM by RT-PCR analysis; format: functional, cell-based; details: dose 2.5-10 µM
Mus musculus [15] = experiment: Anti-inflammatory activity against LPS-induced acute lung injury mouse model assessed as reduction in TNF-alpha mRNA expression at 1 to 2 mg/kg, po preincubated for 4 hrs followed by LPS stimulation and measured after 6 hrs; format: functional, organism-based; details: dose 1-2 mg/kg, time 10.0 hrs
[16] = Toxicity in BALB/c mouse assessed as effect on lung at 2 to 4 mg/kg, PO measured after 7 days by H and E staining based analysis; format: organism-based; details: in vivo, 168 h, dose 2-4 mg/kg, time 7 day
RAW264.7 [17] = experiment: Antiinflammatory activity in mouse RAW264.7 cells assessed as reduction in COX-2 mRNA expression at 2.5 to 10 uM by RT-PCR analysis; format: functional, cell-based; details: dose 2.5-10 µM
RAW264.7 [18] = experiment: Antiinflammatory activity in LPS-induced mouse RAW264.7 cells assessed as decrease in iNOS expression level pretreated for 3 hrs followed by LPS stimulation and measured after 24 hrs by Western blot analysis; format: functional, cell-based; details: dose 1.25-10 µmol/L, time 27.0 hrs
RAW264.7 [19] = experiment: Antiinflammatory activity in LPS-induced mouse RAW264.7 cells assessed as inhibition of IkappaB-alpha expression pretreated for 3 hrs followed by LPS stimulation and measured after 24 hrs by Western blot analysis; format: functional, cell-based; details: dose 1.25-10 µmol/L, time 27.0 hrs
RAW264.7 [20] = experiment: Antiinflammatory activity in LPS-induced mouse RAW264.7 cells assessed as inhibition of IL-1 beta production pretreated for 3 hrs followed by LPS stimulation and measured after 24 hrs by ELISA method; format: functional, cell-based
RAW264.7 [21] = experiment: Antiinflammatory activity in LPS-induced mouse RAW264.7 cells assessed as inhibition of TNF-alpha production pretreated for 3 hrs followed by LPS stimulation and measured after 24 hrs by ELISA method; format: functional, cell-based
[22] = Inhibition of quorum sensing system in Pseudomonas aeruginosa PAO1-lasB-gfp at 10 uM relative to control
Mus musculus [23] = experiment: Anti-inflammatory activity against LPS-induced acute lung injury mouse model assessed as reduction in IL-6 mRNA expression at 1 to 2 mg/kg, po preincubated for 4 hrs followed by LPS stimulation and measured after 6 hrs; format: functional, organism-based; details: dose 1-2 mg/kg, time 10.0 hrs
RAW264.7 [24] = experiment: Antiinflammatory activity in LPS-induced mouse RAW264.7 cells assessed as decrease in NLRP3 expression level pretreated for 3 hrs followed by LPS stimulation and measured after 24 hrs by Western blot analysis; format: functional, cell-based; details: dose 1.25-10 µmol/L, time 27.0 hrs
Mus musculus [25] = experiment: Anti-inflammatory activity against LPS-induced acute lung injury mouse model assessed as downregulation of IL-1 beta level administered as po dose preincubated for 4 hrs followed by LPS stimulation and measured after 6 hrs by ELISA method; format: functional, organism-based; details: dose 1-2 mg/kg, time 10.0 hrs
[26] = Inhibition of quorum sensing system in Pseudomonas aeruginosa PAO1 assessed as reduction in elastase level using BODIPY-FL-labeled DQ elastin conjugate as substrate measured after 24 hrs by fluorometric method
[27] = Toxicity in BALB/c mouse assessed as effect on heart at 2 to 4 mg/kg, PO measured after 7 days by H and E staining based analysis; format: organism-based; details: in vivo, 168 h, dose 2-4 mg/kg, time 7 day
Pseudomonas aeruginosa [28] = experiment: Anti-biofilm activity against Pseudomonas aeruginosa PAO1 assessed as suppression of biofilm formation at 1.25 to 10 uM incubated for 24 hrs by PI staining based confocal fluorescence microscopy based analysis; format: functional, organism-based; details: dose 1.25-10 µM
[29] = Toxicity in BALB/c mouse assessed as effect on body weight at 2 to 4 mg/kg, IG; format: organism-based; details: in vivo, po, dose 2-4 mg/kg
Danio rerio = species: Danio rerio; experiment: Inhibition of macrophage migration in 4 days post fertilized Zebra fish AB embryo assessed as reduction in green fluorescence at 10 micromol/L measured after 4 to 6 hrs by fluorescence microscope based analysis; format: functional, organism-based; details: dose 10.0 µmol/L, time […]
[30] = Inhibition of quorum sensing system in Pseudomonas aeruginosa PAO1-lasB-gfp assessed as reduction in GFP expression incubated for 14 hrs
RAW264.7 [31] = experiment: Antiinflammatory activity in LPS-induced mouse RAW264.7 cells assessed as inhibition of IL-6 production pretreated for 3 hrs followed by LPS stimulation and measured after 24 hrs by ELISA method; format: functional, cell-based
Erythrocyte = experiment: Hemolytic activity in mouse erythrocytes assessed as hemolysis at 0.625 to 10 micromol/L measured after 4 hrs by microplate reader method; format: toxicity, cell-based; details: dose 0.625-10 µmol/L
[32] = Toxicity in BALB/c mouse assessed as effect on spleen at 2 to 4 mg/kg, PO measured after 7 days by H and E staining based analysis; format: organism-based; details: in vivo, 168 h, dose 2-4 mg/kg, time 7 day

IC50 (Pseudomonas aeruginosa [7]; PAO1, 24 h): 7.4 µM
IC50 (RAW264.7 [20]): 18.2 µM
IC50 (RAW264.7 [21]): 6.2 µM
inhibition [22]: 51.6%
IC50 [26]: 7.3 µM
inhibition ([26]; dose 0.625-10 µM): Dose-Dependent Effect
IC50 [30]: 8.7 µM
inhibition ([30]; dose 0.625-10 µM): Dose-Dependent Effect
IC50 (RAW264.7 [31]): 2610 nM
Structure (SMILES): CCCCC1(O)C2=C(C=CCC2)C(=O)N1Cc1ccc(C(F)(F)F)cc1 (configuration not stated)
Activity (Mus musculus [1]): Active
Activity [2]: Non-Toxic
Activity (RAW264.7 [3]): inactive
Activity [4]: Non-Toxic
Activity [5]: Non-Toxic
Activity (RAW264.7 [6]): Active
Activity (Pseudomonas aeruginosa [7]; dose 0.625-10 µM): Dose-Dependent Effect
Activity [8]: Non-Toxic
Activity (Mus musculus [9]): Dose-Dependent Effect
inhibition (RAW264.7 [10]): Active
Activity [11]: Non-Toxic
Activity (Mus musculus [12]): Active
Activity (Mus musculus [13]): Active
Activity (RAW264.7 [14]): Active
Activity (Mus musculus [15]): Active
Activity [16]: Non-Toxic
Activity (RAW264.7 [17]): Active
Activity (RAW264.7 [18]): Dose-Dependent Effect
Activity (RAW264.7 [19]): Dose-Dependent Effect
Activity (Mus musculus [23]): Active
Activity (RAW264.7 [24]): Dose-Dependent Effect
Activity (Mus musculus [25]): Dose-Dependent Effect
Activity [27]: Non-Toxic
Activity (Pseudomonas aeruginosa [28]): Dose-Dependent Effect
Activity [29]: Toxic
inhibition (Danio rerio): Active
Activity (Erythrocyte): Toxic
Activity [32]: Non-Toxic

Reference: ChEMBL document CHEMBL5532656, “Novel ligustilide derivatives target quorum sensing system LasR/LasB and relieve inflammatory response against Pseudomonas aeruginosa infection” (Eur J Med Chem, 2024)
